Data taken from PMC10233829 (ACS Omega, 2023).
In brackets after ≈: the same amount, converted by molar mass.

Experiments:
[1] = system: Staphylococci (standard strains); experiment: MIC, standard Gram-positive strains as a panel; assay type: cell-based, S. aureus, S. epidermidis; settings: standard Gram-positive strains of Table 1; read-out: MIC toward standard Staphylococci (range over strains)
[2] = system: S. epidermidis ATCC 35984; experiment: MIC, twofold microdilution, standard strain; assay type: cell-based; settings: Staphylococcus epidermidis, ATCC35984, 18 h
K. pneumoniae 28 = experiment: MIC, twofold microdilution, clinical strain; assay type: cell-based; settings: Klebsiella pneumoniae, 18 h
S. epidermidis 5253 = experiment: MIC, twofold microdilution, clinical strain; assay type: cell-based, Staphylococcus epidermidis; settings: Staphylococcus epidermidis, 5253, 18 h
S. aureus 180 = experiment: MIC, twofold microdilution, clinical strain; assay type: cell-based; settings: Staphylococcus aureus, 18 h
K. pneumoniae 510 = experiment: MIC, twofold microdilution, clinical strain; assay type: cell-based, Klebsiella pneumoniae; settings: Klebsiella pneumoniae, 510; clinical strain, 18 h
P. aeruginosa 37 = experiment: MIC, twofold microdilution, clinical strain; assay type: cell-based; settings: Pseudomonas aeruginosa, 18 h
S. aureus ATCC 6538 = experiment: MIC, twofold microdilution, standard strain; assay type: cell-based, Staphylococcus aureus; settings: Staphylococcus aureus, ATCC6538; standard strain, 18 h
E. coli ATCC 25922 = experiment: MIC, twofold microdilution, standard strain; assay type: cell-based, Escherichia coli; settings: Escherichia coli, ATCC25922; standard strain, 18 h
[3] = system: P. aeruginosa ATCC 15442 and E. coli ATCC 25922; experiment: MIC, standard Gram-negative rods as a panel; assay type: cell-based; settings: P. aeruginosa ATCC 15442, E. coli ATCC 25922; read-out: MIC against standard Gram-negative rods (range over strains)
E. coli 951 = experiment: MIC, twofold microdilution, clinical strain; assay type: cell-based; settings: Escherichia coli, 18 h
[4] = MTT assay, cytotoxic activity; assay type: cell-based; settings: human, HaCaT cells (immortal keratinocytes); MTT, 72 h, normal cell line; read-out: IC50 HaCaT
Protocol: (§1) Cells were seeded in 6 mL medium in a tissue culture flask (50 mL) in a 37 °C/5% CO2 humidified incubator. […] MTT analysis was performed according to a previous study.[59] Untreated cells were used as controls. Cell absorbance results were inserted into the formula for the relative MTT level (%). It allows to calculate the viability of cells under the influence of the tested compounds. Cell viability was expressed as the percentage of MTT reduction in cells treated with tested compounds compared to the control sample. The relative MTT level was calculated using the formula [100%] = A/B × 100% where A—the test sample absorbance and B—the control sample absorbance.

[5] = system: M. tuberculosis Spec. 192; experiment: Tuberculostatic activity, Microplate Alamar Blue Assay (MIC); assay type: cell-based; settings: Mycobacterium tuberculosis, MABA, read-out: MIC M. tuberculosis Spec. 192 (sensitive to tuberculostatics)
S. aureus ATCC 25923 = experiment: MIC, twofold microdilution, standard strain; assay type: cell-based; settings: Staphylococcus aureus, ATCC25923, 18 h
P. aeruginosa 659 = experiment: MIC, twofold microdilution, clinical strain; assay type: cell-based; settings: Pseudomonas aeruginosa, 18 h
[6] = system: S. epidermidis ATCC 12228; experiment: MIC, twofold microdilution, standard strain; assay type: cell-based; settings: Staphylococcus epidermidis, ATCC12228, 18 h
S. aureus ATCC 29213 = experiment: MIC, twofold microdilution, standard strain; assay type: cell-based; settings: Staphylococcus aureus, ATCC29213, 18 h
S. aureus T5591 = experiment: MIC, twofold microdilution, clinical strain; assay type: cell-based, Staphylococcus aureus; settings: Staphylococcus aureus, T5591, 18 h
S. epidermidis KR4243/1 = experiment: MIC, twofold microdilution, clinical strain; assay type: cell-based; settings: Staphylococcus epidermidis, 18 h
E. coli 600 = experiment: MIC, twofold microdilution, clinical strain; assay type: cell-based, Escherichia coli; settings: Escherichia coli, 600, 18 h
P. aeruginosa ATCC 15442 = experiment: MIC, twofold microdilution, standard strain; assay type: cell-based, Pseudomonas aeruginosa; settings: Pseudomonas aeruginosa, ATCC15442; standard strain, 18 h
PC3 cells = experiment: MTT assay, cytotoxic activity; assay type: cell-based, human; settings: Homo sapiens, PC-3, 72 h, MTT, 72 h
Protocol: as §1, with “Metastatic prostate cancer (PC3) and human immortal keratinocyte (HaCaT) cell lines were purchased from the American Type Culture Collection (ATCC, Rockville, MD, USA) and cultured in MEM (minimal essential medium, Thermo Sci, USA), RPMI 1640 (Roswell Park Memorial Institute, Biowest SAS, France), and DMEM (Dulbecco’s Modified Eagle’s Medium, Biowest SAS, France). Cells” for “Cells”

E. coli 520 = experiment: MIC, twofold microdilution, clinical strain; assay type: cell-based; settings: Escherichia coli, 18 h
S. aureus 5595 = experiment: MIC, twofold microdilution, clinical strain; assay type: cell-based; settings: Staphylococcus aureus, 18 h
M. tuberculosis H37Rv = experiment: Tuberculostatic activity, Microplate Alamar Blue Assay (MIC); assay type: cell-based, Mycobacterium tuberculosis; settings: Mycobacterium tuberculosis, H37RV; MABA; read-out: MIC M. tuberculosis H37Rv
[7] = system: clinical bacterial strains; experiment: MIC, clinical isolates as groups of strains; assay type: cell-based; settings: for share of the reference (CP) activity: S. aureus T5595 and T5591
S. aureus T5595 = experiment: MIC, twofold microdilution, clinical strain; assay type: cell-based, Staphylococcus aureus; settings: Staphylococcus aureus, T5595, 18 h
S. epidermidis 4341 = experiment: MIC, twofold microdilution, clinical strain; assay type: cell-based; settings: Staphylococcus epidermidis, 18 h
E. cloacae 8 = experiment: MIC, twofold microdilution, clinical strain; assay type: cell-based, Escherichia cloacae; settings: Enterobacter cloacae, 8; clinical strain, 18 h
S. aureus NCTC 4163 = experiment: MIC, twofold microdilution, standard strain; assay type: cell-based; settings: Staphylococcus aureus, NCTC4163, 18 h
S. pasteuri KR 4358 = experiment: MIC, twofold microdilution, clinical strain; assay type: cell-based; settings: Staphylococcus pasteuri, KR4358, 18 h
M. tuberculosis Spec 210 = experiment: microbe, parasite or virus in culture; assay type: cell-based, Mycobacterium tuberculosis; settings: M. tuberculosis Spec. 210

SMILES	MIC [2] [µg/mL]	MIC (K. pneumoniae 28) [µg/mL]	MIC (S. epidermidis 5253) [µg/mL]	MIC (S. aureus 180) [µg/mL]	MIC (K. pneumoniae 510) [µg/mL]	MIC (P. aeruginosa 37) [µg/mL]	MIC (S. aureus ATCC 6538) [µg/mL]	MIC (E. coli ATCC 25922) [µg/mL]	MIC (E. coli 951) [µg/mL]	IC50 at 72 h [4] [µM]	MIC [5] [µg/mL]	MIC (S. aureus ATCC 25923) [µg/mL]	MIC (P. aeruginosa 659) [µg/mL]	MIC [6] [µg/mL]	MIC (S. aureus ATCC 29213) [µg/mL]	MIC (S. aureus T5591) [µg/mL]	MIC (S. epidermidis KR4243/1) [µg/mL]	MIC (E. coli 600) [µg/mL]	MIC (P. aeruginosa ATCC 15442) [µg/mL]	IC50 (PC3 cells) [µM]	other results
O=C(O)c1cn(C2CC2)c2cc(N3CCN(C(=O)CCCCCCl)CC3)c(F)cc2c1=O [Compound 7, 7-[4-(6-Chlorohexanoyl)-piperazin-1-yl]-1-cyclopropyl-6-fluoro-4-oxo-1,4-dihydro-quinoline-3-carboxylic Acid]	0.2 (≈ 0.431 µM)	> 25.6	> 25.6	0.5 (≈ 1.08 µM)	> 25.6	> 25.6	0.2 (≈ 0.431 µM)	0.8 (≈ 1.72 µM)	> 25.6	> 100	0.5 (≈ 1.08 µM)	0.2 (≈ 0.431 µM)	> 25.6	0.4 (≈ 0.862 µM)	0.2 (≈ 0.431 µM)	0.4 (≈ 0.862 µM)	0.2 (≈ 0.431 µM)	6.4 (≈ 13.8 µM)	12.8 (≈ 27.6 µM)	> 100	MIC [1]: 0.1 to 0.8 µg/mL (≈ 0.216 to 1.72 µM); MIC [3]: ≤ 1 µg/mL; MIC (E. coli 520): 6.4 µg/mL (≈ 13.8 µM); MIC (S. aureus 5595): 0.5 µg/mL (≈ 1.08 µM); MIC (M. tuberculosis H37Rv): 0.5 µg/mL (≈ 1.08 µM); share of the reference (CP) activity [7]: 62.5%; MIC (S. aureus T5595): 0.4 µg/mL (≈ 0.862 µM); MIC (S. epidermidis 4341): 25.6 µg/mL (≈ 55.2 µM); MIC (E. cloacae 8): 16 µg/mL (≈ 34.5 µM); MIC (S. aureus NCTC 4163): 0.2 µg/mL (≈ 0.431 µM); MIC (S. pasteuri KR 4358): 0.2 µg/mL (≈ 0.431 µM)
O=C(O)c1cn(C2CC2)c2cc(N3CCN(C(=O)CCCCCBr)CC3)c(F)cc2c1=O [Compound 12, 7-[4-(6-Bromohexanoyl)-piperazin-1-yl]-1-cyclopropyl-6-fluoro-4-oxo-1,4-dihydro-quinoline-3-carboxylic Acid]	0.8 (≈ 1.57 µM)	> 25.6	> 25.6	0.5 (≈ 0.984 µM)	> 25.6	> 25.6	1.6 (≈ 3.15 µM)	1.6 (≈ 3.15 µM)	> 25.6	> 100	1 (≈ 1.97 µM)	1.6 (≈ 3.15 µM)	> 25.6	1.6 (≈ 3.15 µM)	1.6 (≈ 3.15 µM)	0.8 (≈ 1.57 µM)	0.8 (≈ 1.57 µM)	0.4 (≈ 0.787 µM)	25.6 (≈ 50.4 µM)	29.7 ± 5	MIC [1]: 0.8 to 1.6 µg/mL (≈ 1.57 to 3.15 µM); MIC (E. coli 520): 0.8 µg/mL (≈ 1.57 µM); MIC (S. aureus 5595): 0.5 µg/mL (≈ 0.984 µM); MIC (M. tuberculosis H37Rv): 1 µg/mL (≈ 1.97 µM); MIC ([7]; clinical strains, read-out: MIC against selected E. coli and E. cloacae strains): 0.1 to 0.8 µg/mL (≈ 0.197 to 1.57 µM); MIC (S. aureus T5595): 0.8 µg/mL (≈ 1.57 µM); MIC (S. epidermidis 4341): 64 µg/mL (≈ 126 µM); MIC (E. cloacae 8): > 25.6 µg/mL; MIC (S. aureus NCTC 4163): 0.8 µg/mL (≈ 1.57 µM); MIC (S. pasteuri KR 4358): 0.8 µg/mL (≈ 1.57 µM)
O=C(O)c1cn(C2CC2)c2cc(N3CCN(C(=O)CCCCCCCCCCBr)CC3)c(F)cc2c1=O [Compound 13, 7-[4-(11-Bromoundekanoyl)-piperazin-1-yl]-1-cyclopropyl-6-fluoro-4-oxo-1,4-dihydro-quinoline-3-carboxylic Acid]	12.8 (≈ 22.1 µM)	> 25.6	> 25.6	> 25.6	> 25.6	> 25.6	12.8 (≈ 22.1 µM)	25.6 (≈ 44.3 µM)	> 25.6	93.4 ± 10.1	4 (≈ 6.91 µM)	12.8 (≈ 22.1 µM)	> 25.6	12.8 (≈ 22.1 µM)	12.8 (≈ 22.1 µM)	> 25.6	> 25.6	> 25.6	> 25.6	33.7 ± 8.2	MIC (E. coli 520): > 25.6 µg/mL; fold more effective than the reference tuberculostatics (M. tuberculosis Spec 210): 8–32 fold; MIC (S. aureus 5595): > 25.6 µg/mL; MIC (M. tuberculosis H37Rv): 2 µg/mL (≈ 3.46 µM); MIC (S. aureus T5595): > 25.6 µg/mL; MIC (S. epidermidis 4341): > 25.6 µg/mL; MIC (E. cloacae 8): > 25.6 µg/mL; MIC (S. aureus NCTC 4163): 6.4 µg/mL (≈ 11.1 µM); MIC (S. pasteuri KR 4358): > 25.6 µg/mL
O=C(O)c1cn(C2CC2)c2cc(N3CCN(C(=O)CCCC(F)(F)F)CC3)c(F)cc2c1=O [Compound 16, 7-[4-(5,5,5-Trifluoropentanoyl)-piperazin-1-yl]-1-cyclopropyl-6-fluoro-4-oxo-1,4-dihydro-quinoline-3-carboxylic Acid]	0.2 (≈ 0.426 µM)	> 25.6	> 25.6	1 (≈ 2.13 µM)	> 25.6	> 25.6	0.2 (≈ 0.426 µM)	1.6 (≈ 3.41 µM)	> 25.6	> 100	64 (≈ 136 µM)	0.2 (≈ 0.426 µM)	> 25.6	0.2 (≈ 0.426 µM)	0.2 (≈ 0.426 µM)	0.4 (≈ 0.852 µM)	0.4 (≈ 0.852 µM)	6.4 (≈ 13.6 µM)	1 (≈ 2.13 µM)	68.8 ± 9.9	MIC [1]: 0.2 µg/mL (≈ 0.426 µM); MIC (E. coli 520): 3.2 µg/mL (≈ 6.82 µM); MIC (S. aureus 5595): 1 µg/mL (≈ 2.13 µM); MIC (M. tuberculosis H37Rv): 64 µg/mL (≈ 136 µM); share of the reference (CP) activity [7]: 62.5%; MIC (S. aureus T5595): 0.4 µg/mL (≈ 0.852 µM); MIC (S. epidermidis 4341): 25.6 µg/mL (≈ 54.5 µM); MIC (E. cloacae 8): 8 µg/mL (≈ 17 µM); MIC (S. aureus NCTC 4163): 0.2 µg/mL (≈ 0.426 µM); MIC (S. pasteuri KR 4358): 0.4 µg/mL (≈ 0.852 µM)
